The values below are quoted from earlier work in patent US8383645B2 (Teva Pharmaceutical Industries, Ltd., priority 2006, dated 2013).

SMILES strings stand for the structures.

The subject of this series is acute experimental autoimmune encephalomyelitis (aEAE) model. Conditions: U.S. Pat. No. 6,077,851.

Turning to `CCN(C(=O)c1c(O)c2c(Cl)cccc2n(C)c1=O)c1ccccc1` [Laquinimod, N-ethyl-N-phenyl-1,2-dihydro-4-hydroxy-5-chloro-1-methyl-2-oxoquinoline-3-carboxamide], the “effectiveness in the aEAE model” value was “effective”.
